Laboratory results reported in ChEMBL document CHEMBL5365461, “Degradation of Cyclin-Dependent Kinase 9/Cyclin T1 by Optimized Microtubule-Associated Protein 1 Light Chain 3 Beta-Recruiting Coumarin Analogs” (J Med Chem, 2023).
Calls of active or inactive are those of the source. The rule behind the calls is not given here.

Columns and labels:
[1] = target: Cyclin-dependent kinase 9 (Homo sapiens) (UniProt P50750); test: Induction of CDK9 55 kDa degradation in human U2932 cells at 500 nM incubated for 12 hrs in presence of HCQ by immunoblotting analysis; type: cell-based
Chain of Cyclin-dependent kinase 9 (Homo sapiens) (P50750 whole entry): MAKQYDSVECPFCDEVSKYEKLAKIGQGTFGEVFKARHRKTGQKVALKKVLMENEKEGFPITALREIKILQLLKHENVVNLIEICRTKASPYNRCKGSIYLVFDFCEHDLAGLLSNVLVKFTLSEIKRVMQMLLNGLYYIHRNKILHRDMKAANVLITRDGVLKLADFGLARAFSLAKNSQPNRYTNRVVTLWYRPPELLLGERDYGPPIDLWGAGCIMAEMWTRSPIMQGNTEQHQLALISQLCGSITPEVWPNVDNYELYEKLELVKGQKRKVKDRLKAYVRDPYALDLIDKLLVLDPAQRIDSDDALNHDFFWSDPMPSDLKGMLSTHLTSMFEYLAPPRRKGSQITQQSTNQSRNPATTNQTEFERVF

[2] = target: Cyclin-dependent kinase 9 (Homo sapiens) (UniProt P50750); test: Induction of CDK9 42 kDa degradation in human U2932 cells at 500 nM incubated for 12 hrs in presence of 5,7-Dihydroxy-4-methylcoumarin by immunoblotting analysis; type: cell-based
[3] = Oral bioavailability in CD-1 mouse at 5 mg/kg measured after 24 hrs by LC-MS/MS analysis; type: ADME, organism-based; details: in vivo
[4] = target: Cyclin-dependent kinase 9 (Homo sapiens) (UniProt P50750); test: Induction of CDK9 55 kDa degradation in human U2932 cells at 500 nM incubated for 12 hrs in presence of SNS-032 by immunoblotting analysis; type: cell-based
[5] = target: Cyclin-dependent kinase 9 (Homo sapiens) (UniProt P50750); test: Induction of CDK9 42 kDa degradation in human U2932 cells at 500 nM incubated for 12 hrs in presence of MG132 by immunoblotting analysis; type: cell-based
[6] = target: Cyclin-dependent kinase 9 (Homo sapiens) (UniProt P50750); test: Induction of CDK9 42 kDa degradation in human U2932 cells by immunoblotting analysis; type: cell-based; details: dose 1-1000 nM
[7] = test system: U2932; test: Downregulation of Mcl-1 protein level in human U2932 cells incubated for 6 hrs by RT-qPCR analysis; type: functional, cell-based; details: dose 10-1000 nM
[8] = test system: U2932; test: Induction of apoptosis in human U2932 cells assessed as viable cells at 1000 nM incubated for 24 hrs by AnnexinV-FITC/PI staining based flow cytometry analysis (reference value: 86.9%); type: functional; details: read-out: Activity
[9] = test system: U2932; test: Induction of apoptosis in human U2932 cells assessed as late apoptotic cells at 1000 nM incubated for 24 hrs by AnnexinV-FITC/PI staining based flow cytometry analysis (reference value: 5.95%); type: functional
[10] = Observed MRTinfinity in CD-1 mouse at 1 mg/kg, iv measured after 24 hrs by LC-MS/MS analysis; type: ADME, organism-based; details: in vivo
[11] = test system: MV4-11; test: Induction of apoptosis in human MV4-11 cells at 1000 nM incubated for 24 hrs by AnnexinV-FITC/PI staining based flow cytometry analysis; type: functional, cell-based
[12] = Volume of distribution at steady state in CD-1 mouse at 1 mg/kg, iv measured after 24 hrs by LC-MS/MS analysis; type: ADME, organism-based; details: in vivo, read-out: Vdss
[13] = target: Cyclin-dependent kinase 9 (Homo sapiens) (UniProt P50750); test: Induction of CDK9 42 kDa degradation in human U2932 cells at 500 nM incubated for 12 hrs in presence of SNS-032 by immunoblotting analysis; type: cell-based
[14] = target: Cyclin-dependent kinase 9 (Homo sapiens) (UniProt P50750); test: Induction of CDK9 42 kDa degradation in human U2932 cells at 500 nM incubated for 12 hrs in presence of BafA1 by immunoblotting analysis; type: cell-based
[15] = test system: MV4-11; test: Downregulation of c-Myc protein level in human MV4-11 cells incubated for 6 hrs by RT-qPCR analysis; type: functional, cell-based; details: dose 10-1000 nM
[16] = test system: MV4-11; test: Downregulation of Mcl-1 protein level in human MV4-11 cells incubated for 6 hrs by RT-qPCR analysis; type: functional, cell-based; details: dose 10-1000 nM
[17] = target: Cyclin-dependent kinase 9 (Homo sapiens) (UniProt P50750); test: Induction of CDK9 55 kDa degradation in human U2932 cells at 500 nM incubated for 12 hrs in presence of 5,7-Dihydroxy-4-methylcoumarin by immunoblotting analysis; type: cell-based
[18] = test system: U2932; test: Induction of LC3B […] in human U2932 cells at 500 nM incubated for 12 hrs in presence of BafA1 by Co-immunoprecipitation analysis; type: cell-based
[19] = target: Cyclin-dependent kinase 9 (Homo sapiens) (UniProt P50750); test: Induction of CDK9 55 kDa degradation in human U2932 cells at 100 nM by immunoblotting analysis; type: cell-based; details: time 1-24 hrs, TDE = time-dependent effect
[20] = test system: U2932; test: Downregulation of RNAP2 phosphorylation at serine 2 residue in human U2932 cells at 10 to 1000 nM incubated for 6 hrs by immunoblotting analysis; type: functional, cell-based; details: dose 10-1000 nM
[21] = test system: U2932; test: Downregulation of c-Myc protein level in human U2932 cells incubated for 6 hrs by RT-qPCR analysis; type: functional, cell-based; details: dose 10-1000 nM
[22] = Cmax in CD-1 mouse at 5 mg/kg, ip measured after 24 hrs by LC-MS/MS analysis; type: ADME, organism-based; set-up: dose 5 mg/kg, time 24 hrs, route ip; details: in vivo
[23] = test system: HCT-116; test: Cytotoxicity against human HCT-116 cells assessed as inhibition of cell growth measured after 72 hrs by CCK-8 assay; type: functional, cell-based
[24] = target: Cyclin-dependent kinase 9 (Homo sapiens) (UniProt P50750); test: Induction of CDK9 55 kDa degradation in human U2932 cells at 500 nM incubated for 12 hrs in presence of MG132 by immunoblotting analysis; type: cell-based
[25] = target: Cyclin-dependent kinase 9 (Homo sapiens) (UniProt P50750); test: Induction of CDK9 42 kDa degradation in human U2932 cells at 500 nM incubated for 12 hrs in presence of HCQ by immunoblotting analysis; type: cell-based
[26] = test system: U2932; test: Induction of apoptosis in human U2932 cells assessed as early apoptotic cells at 1000 nM incubated for 24 hrs by AnnexinV-FITC/PI staining based flow cytometry analysis (reference value: 6.20%); type: functional
[27] = target: Cyclin-dependent kinase 9 (Homo sapiens) (UniProt P50750); test: Induction of CDK9 42 kDa degradation in human U2932 cells at 500 nM incubated for 12 hrs in presence of MLN4924 by immunoblotting analysis; type: cell-based
[28] = target: Cyclin-dependent kinase 9 (Homo sapiens) (UniProt P50750); test: Induction of CDK9 55 kDa degradation in human U2932 cells at 500 nM incubated for 12 hrs in presence of BafA1 by immunoblotting analysis; type: cell-based
[29] = Half life in CD-1 mouse at 5 mg/kg, ip measured after 24 hrs by LC-MS/MS analysis; type: ADME, organism-based; details: in vivo
[30] = AUC(0 to t) in CD-1 mouse at 5 mg/kg, ip measured after 24 hrs by LC-MS/MS analysis; type: ADME, organism-based; set-up: dose 5 mg/kg, time 24 hrs, route ip; details: in vivo
[31] = test system: U2932; test: Induction of apoptosis in human U2932 cells assessed as necrotic cells at 1000 nM incubated for 24 hrs by AnnexinV-FITC/PI staining based flow cytometry analysis (reference value: 0.92%); type: functional
[32] = Half life in CD-1 mouse at 1 mg/kg, iv measured after 24 hrs by LC-MS/MS analysis; type: ADME, organism-based; details: in vivo
[33] = target: Cyclin-dependent kinase 9 (Homo sapiens) (UniProt P50750); test: Induction of CDK9 55 kDa degradation in human U2932 cells by immunoblotting analysis; type: cell-based; details: dose 1-1000 nM
[34] = target: Cyclin-dependent kinase 9 (Homo sapiens) (UniProt P50750); test: Induction of CDK9 42 kDa degradation in human U2932 cells assessed as maximal efficacy at 1 to 1000 nM by immunoblotting analysis relative to control; type: cell-based; details: dose 1-1000 nM
[35] = AUC(0 to t) in CD-1 mouse at 1 mg/kg, iv measured after 24 hrs by LC-MS/MS analysis; type: ADME, organism-based; set-up: time 24 hrs, dose 1 mg/kg, route iv; details: in vivo
[36] = test system: KP-4; test: Cytotoxicity against human KP-4 cells assessed as inhibition of cell growth measured after 72 hrs by CCK-8 assay; type: functional, cell-based
[37] = target: Cyclin-dependent kinase 9 (Homo sapiens) (UniProt P50750); test: Induction of CDK9 55 kDa degradation in human U2932 cells at 500 nM incubated for 12 hrs in presence of MLN4924 by immunoblotting analysis; type: cell-based
[38] = Observed MRTinfinity in CD-1 mouse at 5 mg/kg, ip measured after 24 hrs by LC-MS/MS analysis; type: ADME, organism-based; details: in vivo
[39] = test system: HCT-8; test: Cytotoxicity against human HCT-8 cells assessed as inhibition of cell growth measured after 72 hrs by CCK-8 assay; type: functional, cell-based
[40] = Tmax in CD-1 mouse at 5 mg/kg, ip measured after 24 hrs by LC-MS/MS analysis; type: ADME, organism-based; details: in vivo

Row | SMILES | Activity [1] | Activity [2] | bioavailability [3] | Activity [4] | Activity [5] | Activity [6] | Activity [7] | viability at 1 µM [8] | Activity [9] | MRT inf [10] | Activity [11] | Vd [12] | Activity [13] | Activity [14] | Activity [15] | Activity [16] | Activity [17] | Activity [18] | Activity [19] | Activity [20] | other results
1 | Cc1cc(=O)oc2cc(O)cc(OCCCCCN3CCC(C(=O)Nc4ncc(SCc5ncc(C(C)(C)C)o5)s4)CC3)c12 | inactive | inactive | 43.1% | inactive | Active | Dose-Dependent Effect | Active | 41.8% | 40.9% | 0.79 h | Active | 10.5 L/kg | inactive | inactive | Dose-Dependent Effect | Dose-Dependent Effect | inactive | Active | Tde | Active | Activity [21]: Active; Cmax [22]: 88.4 ng/mL; Activity [23]: Active; Activity [24]: Active; Activity [25]: inactive; Activity [26]: 15.2%; Activity [27]: Active; Activity [28]: inactive; half-life [29]: 4.66 h; AUC(0-t) at 24 h [30]: 156 ng·h/mL; Activity [31]: 2.12%; half-life [32]: 1.97 h; Activity [33]: Dose-Dependent Effect; Emax [34]: 59%; AUC(0-t) at 24 h [35]: 72.3 ng·h/mL; Activity [36]: Active; Activity [37]: Active; MRT inf [38]: 4.17 h; Activity [39]: Active; Tmax [40]: 0.25 h
2 | Cc1cc(=O)oc2cc(OCCCN3CCC(C(=O)Nc4ncc(SCc5ncc(C(C)(C)C)o5)s4)CC3)cc(O)c12 | inactive | inactive | 24.6% | inactive | Active | Dose-Dependent Effect | Active | 47.4% | 38.7% | 0.674 h | Active | 5.7 L/kg | inactive | inactive | Dose-Dependent Effect | Dose-Dependent Effect | inactive | Active | Tde | Active | Activity [21]: Active; Cmax [22]: 88.6 ng/mL; Activity [23]: Active; Activity [24]: Active; Activity [25]: inactive; Activity [26]: 11.8%; Activity [27]: Active; Activity [28]: inactive; half-life [29]: 3.61 h; AUC(0-t) at 24 h [30]: 143 ng·h/mL; Activity [31]: 2.08%; half-life [32]: 1.03 h; Activity [33]: Dose-Dependent Effect; Emax [34]: 49.9%; AUC(0-t) at 24 h [35]: 116 ng·h/mL; Activity [36]: Active; Activity [37]: Active; MRT inf [38]: 3.84 h; Activity [39]: Active; Tmax [40]: 0.25 h
